Measured values published in patent US20230123334A1, “AMINO LIPID COMPOUND, PREPARATION METHOD THEREFOR, AND APPLICATION THEREOF” (SHENZHEN SHENXIN BIOTECHNOLOGY CO., LTD., priority 2020, published 2023).

Columns and labels:
[1] = Encapsulation rate of LNP RNA (Qubit RNA HS Assay kit); assay type: physicochemical; details: LNPs
Method: (§1) The amino lipid compound of the invention was mixed with DOPE, cholesterol and PEG2000-DMG in a molar ratio of 45:10:42.5:2.5, and dissolved in absolute ethanol such that the molar concentration of the amino lipid compound was 0.001-0.01 mmol/L. By using a microinjection pump, the resultant ethanol solution and a sodium acetate solution (50 mM, pH=4.0) in which luciferase mRNA (Fluc mRNA, TriLink) was dissolved were mixed in a volume ratio of 1:3 in a microchannel chip to prepare a crude solution of lipid nanoparticles, which was then dialyzed in 1×PBS at a controlled temperature of 4° C. for 6 h using a dialysis box (Fisher, MWCO 20,000) and filtered through a 0.22 μm microporous filter membrane before use. The mass ratio of the amino lipid compound to Fluc mRNA was about 10:1. The resultant solution of lipid nanoparticles (LNPs) was administered to the tested animals by subcutaneous administration.
Detection of encapsulation rate: the concentration of LNP RNA was detected by Qubit® RNA HS Assay kit. The theoretical RNA concentration was given by the total amount of RNA input divided by the total volume of the final solution.
(§2) The preparation method was the same as Formulation method 1, except that amino lipid compound, DSPC, cholesterol and PEG2000-DMG were used in a molar ratio of 50:10:38.5: 1.5. The resultant solution of lipid nanoparticles (LNPs) was administered to the tested animals by tail vein and intramuscular injection.

[2] = system: BALB/c mice; test: In vivo delivery of luciferase mRNA (Fluc mRNA) by lipid nanoparticles, in vivo imaging; details: 0.5 mg/kg Fluc mRNA, after 12 hours
Method: as §1, §2
Animal Preparation: 6-week aged female BALB/c mice weighed about 20 g were selected and fed in a SPF-grade feeding room. Animal tests were conducted strictly according to the guidelines of national health institutions and the requirements of animal ethics.
In vivo delivery: 9 mice were assigned randomly to each group, and the lipid nanoparticle solution was injected by three routes of administration, i.e., subcutaneous, intramuscular and tail vein injection at a dosage of 0.5 mg/kg Fluc mRNA (3 mice for each route of administration). After 12 hours, 200 μL of 10 mg/mL potassium salt of […] (PerkinElmer) was injected into each mouse through the tail vein. After 10 min, the mice were placed under an in vivo imaging system (IVIS-200, Xenogen) to observe the total fluorescence intensity of each mouse and take photographs for record. The expression intensity of Fluc mRNA delivered by representative amino lipid compounds through the three routes of administration are shown in Table 5-7. DLin-MC3 was used as control.

[3] = system: HEK293 cells; test: Preliminary screening as DNA vectors, GFP transfection of HEK293 cells; assay type: cell-based; details: HEK293 cells; lipid/DOPE liposome with 75 ng plasmid DNA (psin-EGFP-IRES-Puro); number of cells expressing GFP divided by total number of nuclei (Hoechst)
Outline: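 First, amino lipid and DOPE were vortexed in sodium acetate buffer (pH 5.6) to form liposomes. Next, these were held with 75 ng EGFP plasmid at room temperature for 30 min. Finally, HEK293 cells were added, cultured at 37° C., Hoechst-stained, and GFP+/total nuclei scored by imaging.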

[4] = system: HEK293 cells; test: Preliminary screening as mRNA vectors, EGFP mRNA transfection of HEK293 cells; assay type: cell-based; details: HEK293 cells, 96-well plates, EGFP mRNA 50 ng per well; percentage of GFP fluorescent cells relative to total number of cells (Hoechst)
Outline: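 Screening format: EGFP mRNA transfection (50 ng/well) into HEK293 in 10% FBS-supplemented DMEM. Percent green fluorescent cells, normalised to Hoechst nuclear count, gave the value; Lipofectamine2000 was the reference transfectant.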

[5] = Particle size and PDI of lipid nanoparticles (Nano-ZSZEN3600, Malvern); assay type: physicochemical; details: LNPs; for Particle size (nm): Fluc mRNA
Method: as §1
Characterization of particle size: the particle size and PDI of the prepared lipid nanoparticles were determined by Nano-ZSZEN3600 (Malvern). 40 uL of LNP solution was taken for particle size measurement with circulation for three times, 30 s for each circulation.
as §2

[6] = system: Hela cells; test: Transfection of Hela cell line, DNA vectors; assay type: cell-based; details: 75 ng plasmid DNA, GFP cells / total cells
Outline: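 Amino lipid/DOPE liposomes in sodium acetate pH 5.6 were complexed with 75 ng psin-EGFP-IRES-Puro plasmid for 30 min at room temperature, then mixed with 3-5×10^4 Hela cells in DMEM/10% FBS at 37° C. Hoechst stain after 20-24 h, imaging after a further 20-24 h. Efficiency = GFP-positive cells / total nuclei.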

[7] = system: MCF7 cells; test: Transfection of MCF7 cell line, mRNA vectors; assay type: cell-based; details: 50 ng EGFP mRNA per well
Outline: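 Efficiency was scored as the fraction of GFP-fluorescent cells over all Hoechst-counted cells after delivery of 50 ng EGFP mRNA per well. Cells were MCF7 grown in serum-supplemented DMEM, and Lipofectamine2000 served as reference.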

[8] = system: MCF7 cells; test: Transfection of MCF7 cell line, DNA vectors; assay type: cell-based; parameters: concentration or dose not given beside the values; details: plasmid DNA, GFP cells / total cells
Outline: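 Read-out: GFP-positive cells as % of all Hoechst-stained nuclei after 96-well transfection of MCF7 cells grown in serum-supplemented DMEM. Positive control was Lipofectamine2000, used per manufacturer's protocol.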

[9] = system: Hela cells; test: Transfection of Hela cell line, mRNA vectors; assay type: cell-based; details: 50 ng EGFP mRNA per well
Outline: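 Transfection efficiency was scored as GFP-fluorescent cells over Hoechst-stained total nuclei, with Lipofectamine2000 as reference reagent. Each well of HeLa cells, grown in DMEM plus 10% FBS, received 50 ng EGFP mRNA.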

[10] = Formulation Method 1 (amino lipid:DOPE:cholesterol:PEG2000-DMG 45:10:42.5:2.5)
[11] = Formulation method 2 (amino lipid:DSPC:cholesterol:PEG2000-DMG 50:10:38.5:1.5)

Compound: CCCCCCCCCCCCCCCCSc1nc(NCCCN2CCN(C)CC2)nc(SCCCCCCCC)n1 [Compound S8S16D9]
- Encapsulation rate ([1]; Formulation Method 1): 98.7%
- Encapsulation rate ([1]; Formulation method 2): 99.4%
- Fluorescence intensity (expression intensity of Fluc mRNA) ([2]; intramuscular administration): 8.2E+06
- Fluorescence intensity (expression intensity of Fluc mRNA) ([2]; subcutaneous administration): 4.2E+06
- Fluorescence intensity (expression intensity of Fluc mRNA) ([2]; tail vein administration): 6.5E+06
- Absolute DNA transfection efficiency in HEK293 cells [3]: 6.7%
- Absolute mRNA transfection efficiency in HEK293 cells [4]: 1.5%
- PDI ([5]; Formulation Method 1): 0.01
- Particle size (nm) [5, 10]: 96 ± 5 nm
- PDI ([5]; Formulation method 2): 0.02
- Particle size (nm) [5, 11]: 115 ± 5 nm

Compound: CCCCCCCCCCCCCCCCSc1nc(NCCN2CCN(C)CC2)nc(SCCCCCCCCC)n1 [Compound S9S16D5]
- Absolute DNA transfection efficiency in Hela cells [6]: 11.7%
- Absolute mRNA transfection efficiency in MCF7 cells [7]: 32.0%
- Encapsulation rate ([1]; Formulation Method 1): 99.1%
- Encapsulation rate ([1]; Formulation method 2): 99.6%
- Fluorescence intensity (expression intensity of Fluc mRNA) ([2]; intramuscular administration): 5.2E+06
- Fluorescence intensity (expression intensity of Fluc mRNA) ([2]; subcutaneous administration): 4.2E+07
- Fluorescence intensity (expression intensity of Fluc mRNA) ([2]; tail vein administration): 7.5E+06
- Absolute DNA transfection efficiency in HEK293 cells [3]: 23.5%
- Absolute DNA transfection efficiency in MCF7 cells [8]: 26.6%
- Absolute mRNA transfection efficiency in HEK293 cells [4]: 47.8%
- Absolute mRNA transfection efficiency in Hela cells [9]: 11.7%
- PDI ([5]; Formulation Method 1): 0.04
- Particle size (nm) [5, 10]: 152 ± 5 nm
- PDI ([5]; Formulation method 2): 0.05
- Particle size (nm) [5, 11]: 130 ± 5 nm

Compound: CCCCCCCCCCCCCCCCSc1nc(NCC2CCN(C)CC2)nc(SCCCCCCCCCC)n1 [Compound S10S16D10]
- Encapsulation rate ([1]; Formulation Method 1): 99.5%
- Encapsulation rate ([1]; Formulation method 2): 99.2%
- Fluorescence intensity (expression intensity of Fluc mRNA) ([2]; intramuscular administration): 3.2E+06
- Fluorescence intensity (expression intensity of Fluc mRNA) ([2]; subcutaneous administration): 4.7E+07
- Fluorescence intensity (expression intensity of Fluc mRNA) ([2]; tail vein administration): 2.9E+06
- Absolute DNA transfection efficiency in HEK293 cells [3]: 79.4%
- Absolute mRNA transfection efficiency in HEK293 cells [4]: 47.4%
- PDI ([5]; Formulation Method 1): 0.03
- Particle size (nm) [5, 10]: 136 ± 5 nm
- PDI ([5]; Formulation method 2): 0.04
- Particle size (nm) [5, 11]: 125 ± 5 nm

Compound: CCCCCCCCCCCCSc1nc(NCCCN2CCOCC2)nc(SCCCCCCCCCCC)n1 [Compound S11S12D8]
- Encapsulation rate ([1]; Formulation Method 1): 98.3%
- Encapsulation rate ([1]; Formulation method 2): 98.9%
- Fluorescence intensity (expression intensity of Fluc mRNA) ([2]; intramuscular administration): 4.7E+06
- Fluorescence intensity (expression intensity of Fluc mRNA) ([2]; subcutaneous administration): 1.1E+07
- Fluorescence intensity (expression intensity of Fluc mRNA) ([2]; tail vein administration): 3.8E+06
- Absolute DNA transfection efficiency in HEK293 cells [3]: 10.7%
- Absolute mRNA transfection efficiency in HEK293 cells [4]: 6.7%
- PDI ([5]; Formulation Method 1): 0.02
- Particle size (nm) [5, 10]: 80 ± 5 nm
- PDI ([5]; Formulation method 2): 0.01
- Particle size (nm) [5, 11]: 90 ± 5 nm

Compound: CCCCCCCCCCCCCNc1nc(NCCCN(C)C)nc(SCCCCCCCCCCCC)n1 [Compound S12N13D6]
- Encapsulation rate ([1]; Formulation Method 1): 99.0%
- Encapsulation rate ([1]; Formulation method 2): 99.2%
- Fluorescence intensity (expression intensity of Fluc mRNA) ([2]; intramuscular administration): 1.2E+06
- Fluorescence intensity (expression intensity of Fluc mRNA) ([2]; subcutaneous administration): 8.6E+06
- Fluorescence intensity (expression intensity of Fluc mRNA) ([2]; tail vein administration): 3.9E+06
- PDI ([5]; Formulation Method 1): 0.05
- Particle size (nm) [5, 10]: 89 ± 5 nm
- PDI ([5]; Formulation method 2): 0.04
- Particle size (nm) [5, 11]: 96 ± 5 nm

Compound: CCCCCCCCCCCCCCCSc1nc(NCCCCCCCCCCC)nc(NCCN2CCN(C)CC2)n1 [Compound S15N11D5]
- Encapsulation rate ([1]; Formulation Method 1): 99.2%
- Encapsulation rate ([1]; Formulation method 2): 98.8%
- Fluorescence intensity (expression intensity of Fluc mRNA) ([2]; intramuscular administration): 3.7E+06
- Fluorescence intensity (expression intensity of Fluc mRNA) ([2]; subcutaneous administration): 1.9E+08
- Fluorescence intensity (expression intensity of Fluc mRNA) ([2]; tail vein administration): 3.7E+06
- PDI ([5]; Formulation Method 1): 0.02
- Particle size (nm) [5, 10]: 79 ± 5 nm
- PDI ([5]; Formulation method 2): 0.01
- Particle size (nm) [5, 11]: 95 ± 5 nm

Compound: CCCCCCCCCCCCCCCCSc1nc(NCCCCCCCC)nc(NCC2CCN(C)CC2)n1 [Compound S16N8D10]
- Encapsulation rate ([1]; Formulation Method 1): 97.2%
- Encapsulation rate ([1]; Formulation method 2): 98.6%
- Fluorescence intensity (expression intensity of Fluc mRNA) ([2]; intramuscular administration): 3.9E+06
- Fluorescence intensity (expression intensity of Fluc mRNA) ([2]; subcutaneous administration): 3.7E+08
- Fluorescence intensity (expression intensity of Fluc mRNA) ([2]; tail vein administration): 3.2E+06
- PDI ([5]; Formulation Method 1): 0.04
- Particle size (nm) [5, 10]: 90 ± 5 nm
- PDI ([5]; Formulation method 2): 0.03
- Particle size (nm) [5, 11]: 120 ± 5 nm

Compound: CCCCCCCCCCCCCCCCSc1nc(NCCCCCCCCC)nc(NCCN2CCCC2)n1 [Compound S16N9D3]
- Encapsulation rate ([1]; Formulation Method 1): 98.9%
- Encapsulation rate ([1]; Formulation method 2): 99.1%
- Fluorescence intensity (expression intensity of Fluc mRNA) ([2]; intramuscular administration): 4.3E+06
- Fluorescence intensity (expression intensity of Fluc mRNA) ([2]; subcutaneous administration): 2.7E+07
- Fluorescence intensity (expression intensity of Fluc mRNA) ([2]; tail vein administration): 5.3E+06
- PDI ([5]; Formulation Method 1): 0.08
- Particle size (nm) [5, 10]: 87 ± 4 nm
- PDI ([5]; Formulation method 2): 0.06
- Particle size (nm) [5, 11]: 127 ± 5 nm

Compound: CCCCC/C=C\C/C=C\CCCCCCCCC(CCCCCCCC/C=C\C/C=C\CCCCC)OC(=O)CCCN(C)C [DLin-MC3, reference compound]
- Fluorescence intensity (expression intensity of Fluc mRNA) ([2]; intramuscular administration): 2.7E+07
- Fluorescence intensity (expression intensity of Fluc mRNA) ([2]; subcutaneous administration): 3.1E+06
- Fluorescence intensity (expression intensity of Fluc mRNA) ([2]; tail vein administration): 2.7E+07
